Source: article PMC6018554, “2-[2-(4-(trifluoromethyl)phenylamino)thiazol-4-yl]acetic acid (Activator-3) is a potent activator of AMPK” (Scientific Reports, 2018)

How the values were obtained:
[1] = target: T1, recombinant human AMPK α1β1γ1 (Homo sapiens, UniProt P54619); assay: In vitro AMP kinase assay (pACC ELISA), α1β1γ1; type: biochemical; conditions: AMP 1 µM to 300 µM with Activator-3 30 nM
T1 construct: purchased SignalChem P47-10H-05/P48-10H-05 (for all four isozymes together); host or cells: baculovirus expression
Excerpt: Having observed the effect of Activator-3 on the activation of AMPK in cell based assays, we next examined whether Activator-3 could activate AMPK directly or not. […] The activity of recombinant human AMPK (α1β1γ1, α2β1γ1, α2β2γ2 and α2β2γ3) in the presence of vehicle was considered as 100%. The EC50 of Activator-3 for the activation of α1β1γ1, α2β1γ1 and α2β2γ2 isozymes were similar. However, the activity of Activator-3 against α2β2γ3 was marginally higher (Fig. 1C).
(§1) A high binding Enzyme Immuno Assay (EIA) 96-well plate (Sigma: Cat# CLS3590) was coated with Acetyl CoA Carboxylase 2 (ACC: 175–271 amino acids) peptide, a direct substrate for AMPK, 100 ng per well (1:1000 ratio, Cat# 12–491, Upstate biotechnology) and incubated overnight at 25 °C. Reaction mixture was incubated at 30 °C for 2 h and reaction was stopped by washing the plate with 0.05% Tween 20 followed by incubation with pACC primary antibody and rabbit secondary antibody as described in cell based ELISA section. Assay buffer is composed of 10 mM DTT, 100 mM magnesium acetate, 50 μM ATP and 10 mM HEPES.

[2] = system: human recombinant α1β1γ1 AMPK γ1 mutants (R70G, R152G); assay: In vitro kinase assay with mutant AMPK pulled down from HEK-293T cells; type: biochemical; conditions: 100 µM AMP; γ1 mutants
Method: as §1
(§2) R70 and R152 residues in AMPK γ1 subunit (pDONR223-PRKAG1: purchased from addgene, cat# plasmid#23718) are mutated to glycine using overlapping extension PCR. Subsequently, the mutants were transferred into a triple tagged destination vector (Streptavidin, Flag and Biotin; SFB-pDEST) by using gateway cloning technology. The mutant DNA was transfected into HEK-293T cells using PEI following standard procedures. After 4 h of transfection, media was changed to DMEM containing 10% FBS. Cells were lysed in TENNS lysis buffer (20 mM Tris pH:8.0, 100 mM NaCl, 1 mM EDTA, 10 mM Na2H2P2O7, 10 mM NaF, 10 mM Na3VO4, 0.5% NP40) and subjected to pull down using streptavidin beads followed by biotin elution. To protect the protein from dephosphorylation, cells were treated with 500 μM AICAR prior to lysis. This purified protein was estimated by using nanodrop and taken for in vitro kinase assay to check whether Activator-3 is binding to the mutant AMPK or not, and the activity of the mutant protein was assessed by comparing with the wild type protein activity.

[3] = target: T2, human recombinant α1β1γ1 AMPK γ1 mutants (R70G, R152G) (Homo sapiens, UniProt P54619, R70G); assay: as above; type: biochemical; conditions: 100 µM AMP; γ1 R70G
T2 construct: SFB triple tag (Streptavidin, Flag and Biotin; SFB-pDEST); host or cells: HEK-293T, streptavidin-bead pull-down with biotin elution
Method: as §1, §2

PFK1 = assay: PFK activity assay kit; type: biochemical; conditions: AMP at 100 µM and 1 mM
[4] = target: T3, recombinant human AMPK α2β2γ2 (Homo sapiens, UniProt Q9UGJ0); design: method as in PMID 28705990; conditions: cited from earlier work
T3 construct: purchased SignalChem; host or cells: baculovirus expression
T3 sequence (Q9UGJ0 whole entry): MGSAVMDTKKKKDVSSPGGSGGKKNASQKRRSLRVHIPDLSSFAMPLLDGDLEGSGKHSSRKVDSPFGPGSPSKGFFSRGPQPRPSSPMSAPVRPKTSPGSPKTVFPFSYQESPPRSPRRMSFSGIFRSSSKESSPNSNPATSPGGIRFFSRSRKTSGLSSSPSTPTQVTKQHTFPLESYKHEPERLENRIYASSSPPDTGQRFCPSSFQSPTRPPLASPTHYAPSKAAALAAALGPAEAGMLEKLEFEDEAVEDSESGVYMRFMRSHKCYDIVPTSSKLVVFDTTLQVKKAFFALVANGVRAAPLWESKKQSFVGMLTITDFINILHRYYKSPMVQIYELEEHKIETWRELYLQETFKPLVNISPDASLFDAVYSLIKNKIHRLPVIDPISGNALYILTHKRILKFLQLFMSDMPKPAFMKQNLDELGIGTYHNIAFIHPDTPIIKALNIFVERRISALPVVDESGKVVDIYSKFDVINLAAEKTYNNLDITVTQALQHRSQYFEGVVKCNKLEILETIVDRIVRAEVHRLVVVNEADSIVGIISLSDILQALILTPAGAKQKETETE
T3 sequence (P54646 whole entry partner): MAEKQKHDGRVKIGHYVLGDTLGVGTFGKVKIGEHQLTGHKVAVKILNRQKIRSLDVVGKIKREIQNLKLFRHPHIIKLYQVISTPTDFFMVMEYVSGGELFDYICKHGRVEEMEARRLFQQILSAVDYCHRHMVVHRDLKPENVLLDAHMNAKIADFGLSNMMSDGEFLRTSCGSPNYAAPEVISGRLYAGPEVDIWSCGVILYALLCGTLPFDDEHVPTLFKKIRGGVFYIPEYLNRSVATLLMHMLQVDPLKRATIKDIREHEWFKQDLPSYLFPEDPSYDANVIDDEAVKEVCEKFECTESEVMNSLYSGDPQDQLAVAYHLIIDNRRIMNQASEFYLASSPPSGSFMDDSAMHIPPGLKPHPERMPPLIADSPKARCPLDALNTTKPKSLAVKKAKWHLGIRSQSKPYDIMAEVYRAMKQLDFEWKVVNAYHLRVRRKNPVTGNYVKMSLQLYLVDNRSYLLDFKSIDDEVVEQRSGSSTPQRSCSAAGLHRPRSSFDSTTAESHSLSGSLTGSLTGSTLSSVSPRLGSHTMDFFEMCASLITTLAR
T3 sequence (O43741 whole entry partner): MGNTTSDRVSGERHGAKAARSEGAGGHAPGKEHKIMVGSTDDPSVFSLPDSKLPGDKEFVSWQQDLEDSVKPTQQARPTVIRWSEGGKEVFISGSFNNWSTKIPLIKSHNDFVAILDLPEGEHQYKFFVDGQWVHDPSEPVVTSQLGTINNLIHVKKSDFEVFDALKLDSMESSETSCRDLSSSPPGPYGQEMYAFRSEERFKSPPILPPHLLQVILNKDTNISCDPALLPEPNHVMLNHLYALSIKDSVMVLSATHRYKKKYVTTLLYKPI

T2 sequence (P54619 whole entry R70G): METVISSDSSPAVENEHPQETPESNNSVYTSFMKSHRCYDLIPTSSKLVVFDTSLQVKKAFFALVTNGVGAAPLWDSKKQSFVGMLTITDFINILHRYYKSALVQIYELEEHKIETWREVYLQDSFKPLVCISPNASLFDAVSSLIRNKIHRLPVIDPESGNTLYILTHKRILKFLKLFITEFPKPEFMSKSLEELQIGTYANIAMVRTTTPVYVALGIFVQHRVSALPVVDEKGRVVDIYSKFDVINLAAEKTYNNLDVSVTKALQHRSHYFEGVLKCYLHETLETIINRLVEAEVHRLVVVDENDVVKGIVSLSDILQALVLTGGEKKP
T2 sequence (Q13131 whole entry partner): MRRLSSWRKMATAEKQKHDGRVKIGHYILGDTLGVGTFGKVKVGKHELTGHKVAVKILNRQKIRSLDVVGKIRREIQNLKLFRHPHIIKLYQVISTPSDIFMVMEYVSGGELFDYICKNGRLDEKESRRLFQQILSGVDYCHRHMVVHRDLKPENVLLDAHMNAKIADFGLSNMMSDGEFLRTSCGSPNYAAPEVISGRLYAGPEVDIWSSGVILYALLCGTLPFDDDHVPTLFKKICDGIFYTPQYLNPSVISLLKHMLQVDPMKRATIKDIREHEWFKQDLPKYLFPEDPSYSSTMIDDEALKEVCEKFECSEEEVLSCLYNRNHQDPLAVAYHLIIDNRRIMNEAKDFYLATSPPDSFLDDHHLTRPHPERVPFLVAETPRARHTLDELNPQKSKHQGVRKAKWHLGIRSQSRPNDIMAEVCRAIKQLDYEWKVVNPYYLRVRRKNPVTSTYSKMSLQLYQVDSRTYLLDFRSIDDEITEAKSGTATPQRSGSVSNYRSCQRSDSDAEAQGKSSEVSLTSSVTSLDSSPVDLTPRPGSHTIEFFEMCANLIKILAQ
T2 sequence (Q9Y478 2-270 partner): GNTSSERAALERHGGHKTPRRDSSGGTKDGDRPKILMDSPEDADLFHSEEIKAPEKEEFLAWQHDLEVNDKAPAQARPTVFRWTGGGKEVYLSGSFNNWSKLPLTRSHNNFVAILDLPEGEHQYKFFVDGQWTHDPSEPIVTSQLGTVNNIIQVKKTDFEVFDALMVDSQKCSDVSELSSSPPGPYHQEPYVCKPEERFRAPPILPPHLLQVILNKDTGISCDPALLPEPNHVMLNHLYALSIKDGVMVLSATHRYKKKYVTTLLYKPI
T1 sequence (P54619 whole entry): as the sequence (P54619 whole entry R70G) above, with G70R counted along it
T1 sequence (Q13131 whole entry partner): as the sequence (Q13131 whole entry partner) above
T1 sequence (Q9Y478 whole entry partner): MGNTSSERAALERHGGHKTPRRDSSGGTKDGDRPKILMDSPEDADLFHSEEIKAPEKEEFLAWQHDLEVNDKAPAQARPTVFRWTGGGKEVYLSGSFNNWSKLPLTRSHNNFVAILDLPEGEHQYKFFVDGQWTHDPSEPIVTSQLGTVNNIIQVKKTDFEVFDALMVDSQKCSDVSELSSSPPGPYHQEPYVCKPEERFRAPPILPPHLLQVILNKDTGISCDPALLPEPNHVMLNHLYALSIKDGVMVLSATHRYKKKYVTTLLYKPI

SMILES: Nc1ncnc2c1ncn2C1OC(COP(=O)(O)O)C(O)C1O (centres unmarked) [AMP, reference compound]
- α1β1γ1 activity compared to 30 nM Activator-3 alone [1]: progressive enhancement
- AMPK activity of mutant proteins vs wild type [2]: significant reduction
- activation of AMPK, effect of R70G mutation [3]: did not impact
- effect on PFK1 activity (PFK1): activated

SMILES: O[C@@H]1CO[C@H]2[C@@H]1OC[C@H]2Oc1nc2nc(-c3ccc(-c4ccccc4)cc3)c(Cl)cc2[nH]1 [MK-8722]
- Emax compared to basal activity [4]: ~ 250%
